Like-named read-outs stand apart in the source and are kept apart here. Non-standard residues stand in square brackets, D forms with d. Residues, ends and D or L forms follow the SMILES beside them. dNva = CCC[C@@H](N)C(=O)O; Orn = NCCC[C@H](N)C(=O)O
Columns and labels:
PBQ-induced writhing [1] = assay: Mouse writhing test with prior N-methyllevallorphan (NML); format: in vivo; settings: 10 mg/kg N-methyllevallorphan before peptide
Experimental: A variation of the mouse writhing experiment was also conducted to determine peripheral versus central binding preferences of certain peptides of this invention. In this experiment, 10 mg/kg of N-methyllevallorphan (NML), a known peripheral opioid antagonist, was administered to the mice before injection of the synthetic dermorphin peptide.

guinea pig ileum (GPI) [2] = assay: Ke values for naloxone as antagonist in the GPI assay; format: cell-based; settings: mean of three determinations ± SEM
Experimental: κ-receptor interactions were determined by measuring Ke values for naloxone as an antagonist in the GPI assay. High Ke values (in the range of 20-30 nM) are associated with κ-receptor interactions. Low Ke values (in the range of 1-2 nM) are associated with μ-receptor interactions. Ke values for naloxone were determined from the ratio of IC50 values obtained in the presence of and in the absence of a fixed naloxone concentration. The IC50 values of the tested compounds were normalized according to published procedure (F. M. Leslie, "Methods Used for the Study of Opioid Receptors", Pharmacological Reviews, 39 (1987)).

PBQ-induced writhing [3] = assay: Mouse writhing test (PBQ); format: in vivo; settings: for PBQ (20 min.) ED50: dose reducing the number of writhes by 50%
Experimental: The mouse writhing test detects both peripherally and centrally mediated analgesic effects. The test procedure is described in Siegmund et al., Proc. Soc. Exp. Biol. Med., 95, p. 729 (1957). In this test, a control group of albino mice was injected intraperitoneally with 0.3 ml/20 g body weight of a 0.02% solution of 2-phenyl-1,4-benzoquinone (PBQ). The writhing and contortional movements of the mice over the following 15 minutes were recorded. A second group of mice was given a dose of a synthetic dermorphin analog according to this invention, then allowed to wait a period of time before being administered the PBQ injection. The average number of writhes was then recorded and compared to the control group. The results of this test are expressed as the dosage of peptide that reduces the number of writhes by 50% at a given time interval (referred to as ED50).

hot plate stimulus = assay: Mouse hot plate test; format: in vivo; settings: for Hot plate ED50: mouse, in vivo; for ratio of ED50 for PBQ assay over ED50 for the hot plate assay: peripheral/central activity ratio
Experimental: The mouse hot plate test is an assay which only detects centrally-mediated analgesic effects. This test was carried out using the protocol described in G. Woolfe and A. MacDonald, J. Pharmacol. Exp. Ther., 80, p. 300 ([…]).
Since most of the peptides of the invention were not potent centrally, it was impossible to determine an ED50 value. […] A result is considered insignificant if 30% of mice or lower have responded.

[4] = Respiration rate (respiratory depression); format: in vivo, rat; settings: dose 30 mg/kg; control 142 ± 5
Experimental: In addition to the mouse writhing data, respiratory depression was measured in certain treated mice. Respiratory depression is a commonly observed side effect characteristic of centrally-acting opiates. These reulsts are expressed in Table 5.

mouse vas deferens (MVD) = format: cell-based
guinea pig ileum (GPI) [5] = format: cell-based
δ-opioid receptor = biological target: T1, δ-opioid receptor (Rattus norvegicus, UniProt P33533); assay: biochemical; format: binding
T1 construct: displacement of the radioligands from the rat brain membrane preparations; from tissue; host or cells: rat brain membrane preparations
T1 sequence (P33533 whole entry): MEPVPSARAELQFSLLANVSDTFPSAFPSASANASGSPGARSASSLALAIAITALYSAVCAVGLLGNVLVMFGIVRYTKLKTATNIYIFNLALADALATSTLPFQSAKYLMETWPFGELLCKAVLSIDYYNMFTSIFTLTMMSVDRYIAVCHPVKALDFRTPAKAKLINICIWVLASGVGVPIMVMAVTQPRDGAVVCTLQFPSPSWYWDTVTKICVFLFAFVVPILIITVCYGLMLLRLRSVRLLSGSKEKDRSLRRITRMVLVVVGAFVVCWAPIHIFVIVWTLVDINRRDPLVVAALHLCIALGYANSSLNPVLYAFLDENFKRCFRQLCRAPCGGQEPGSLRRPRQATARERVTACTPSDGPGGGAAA

μ-opioid receptor = biological target: T2, μ-opioid receptor (Rattus norvegicus, UniProt P33535); assay: biochemical; format: binding
T2 construct: displacement of the radioligands from the rat brain membrane preparations; from tissue; host or cells: rat brain membrane preparations
T2 sequence (P33535 whole entry): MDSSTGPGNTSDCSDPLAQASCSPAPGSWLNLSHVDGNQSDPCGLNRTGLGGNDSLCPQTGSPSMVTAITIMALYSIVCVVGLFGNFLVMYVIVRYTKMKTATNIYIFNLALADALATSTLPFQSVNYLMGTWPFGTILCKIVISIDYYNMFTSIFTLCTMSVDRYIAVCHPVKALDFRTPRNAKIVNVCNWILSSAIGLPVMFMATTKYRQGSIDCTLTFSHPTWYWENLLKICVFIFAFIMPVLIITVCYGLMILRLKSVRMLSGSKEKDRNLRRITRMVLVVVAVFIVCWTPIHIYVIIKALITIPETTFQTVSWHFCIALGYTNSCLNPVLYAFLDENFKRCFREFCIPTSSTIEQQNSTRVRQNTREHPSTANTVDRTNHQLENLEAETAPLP

| Structure (SMILES) | Antagonism of antinociceptive effect by prior NML (PBQ-induced writhing [1]) | Ke (naloxone) (guinea pig ileum (GPI) [2]) [nm] | PBQ (20 min.) ED50 (PBQ-induced writhing [3]) [mg/kg] | Hot plate ED50 (hot plate stimulus) [mg/kg] | Breaths per min. [4] [breaths per min.] | IC50 (mouse vas deferens (MVD)) [nM] | IC50 (guinea pig ileum (GPI) [5]) [nM] | Ki (δ-opioid receptor; read-out: [3H]HSLET Ki^δ) [nM] | Ki^δ /Ki^μ (μ-opioid receptor) | Ki (μ-opioid receptor; read-out: [3H]DAGO Ki^μ) [nM] | ratio of ED50 for PBQ assay over ED50 for the hot plate assay (hot plate stimulus) | MVD relative potency (mouse vas deferens (MVD)) | GPI relative potency (guinea pig ileum (GPI) [5]) | MVD/GPI IC50 ratio (guinea pig ileum (GPI) [5]) | Ki (μ-opioid receptor) [nM] | Ki (δ-opioid receptor) [nM] | ED50 (PBQ-induced writhing [3]; Mus musculus, 20 min, read-out: PBQ (20 min.) ED50, dose reducing the number of writhes by 50%) [mg/kg] | ED50 (hot plate stimulus; Mus musculus) [mg/kg] |
| --- | --- | --- | --- | --- | --- | --- | --- | --- | --- | --- | --- | --- | --- | --- | --- | --- | --- | --- |
| NCCCC[C@H](NC(=O)[C@H](Cc1ccccc1)NC(=O)[C@@H](CCCN=C(N)N)NC(=O)[C@@H](N)Cc1ccc(O)cc1)C(N)=O [BCH-150, H-Tyr-D-Arg-Phe-Lys-NH2] | partially or totally antagonized | 1.17 ± 0.08 | 0.65 | 19 | 121 ± 6 | 781 ± 146 | 338 ± 41 | 19200 |  |  |  |  |  |  |  |  |  |  |
| CCC[C@@H](NC(=O)[C@@H](N)Cc1ccc(O)cc1)C(=O)N[C@@H](Cc1ccccc1)C(=O)N[C@@H](CCCN)C(N)=O [BCH-752, H-Tyr-D-Nva-Phe-Orn-NH2] (H-Y[dNva]F[Orn]-NH2) | partially or totally antagonized | 1.55 ± 0.23 | 0.2 | 5.2 | 122 ± 14 | 271 ± 63 | 104 ± 15 | 2200 | 1880 | 1.17 | 26 | 0.0420 ± 0.0098 | 2.36 ± 0.33 | 2.61 |  |  |  |  |
| CCC[C@@H](NC(=O)[C@@H](N)Cc1ccc(O)cc1)C(=O)N[C@@H](Cc1ccccc1)C(=O)N[C@@H](CCCCN)C(N)=O [BCH-2200, H-Tyr-D-Nva-Phe-Lys-NH2] (H-Y[dNva]FK-NH2) | partially or totally antagonized |  | 0.3 |  |  |  |  |  | > 1110 |  |  |  |  |  | 2.27 | > 2530 |  |  |
| CN1CC[C@]23c4c5ccc(O)c4O[C@H]2[C@@H](O)C=C[C@H]3[C@H]1C5 [morphine, reference compound] | not antagonized |  |  |  | 104 ± 6 |  |  |  |  |  | 4.5 |  |  |  |  |  | 0.6 | 2.7 |
